From the supplement of paper PMC10307832

Columns and labels:
Assay in all cases: relative viability (nuclei count vs DMSO), 5 days (fraction); higher = more cells survive
Apatinib + Olaparib = compound: N#CC1(c2ccc(NC(=O)c3cccnc3NCc3ccncc3)cc2)CCCC1 [Apatinib] + O=C(c1cc(Cc2n[nH]c(=O)c3ccccc23)ccc1F)N1CCN(C(=O)C2CC2)CC1 [Olaparib] (partner 8 µM)
Summary of the method: (§1)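 Cells from lung cancer lines were seeded into 1536-well plates and, one day later, dosed by pin tool. Treatments were either a single drug or a fixed dose of an anchor drug with five library-drug doses (not always all listed) in √10 steps. After 5 days, nuclei were stained in a one-step fixation (final 0.05% Triton X-100, 1% formaldehyde, 1 ug/ml Hoechst) and counted on 4× images, and relative viability is the treated-to-vehicle nuclei ratio, as the median of duplicate plates.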

Apatinib + Palbociclib = compound: N#CC1(c2ccc(NC(=O)c3cccnc3NCc3ccncc3)cc2)CCCC1 [Apatinib] + CC(=O)c1c(C)c2cnc(Nc3ccc(N4CCNCC4)cn3)nc2n(C2CCCC2)c1=O [Palbociclib] (partner 0.5 µM)
Summary of the method: as §1

Apatinib + Pictilisib = compound: N#CC1(c2ccc(NC(=O)c3cccnc3NCc3ccncc3)cc2)CCCC1 [Apatinib] + CS(=O)(=O)N1CCN(Cc2cc3nc(-c4cccc5[nH]ncc45)nc(N4CCOCC4)c3s2)CC1 [Pictilisib] (partner 1 µM)
Summary of the method: as §1

Metformin + Palbociclib = compound: CN(C)C(=N)NC(=N)N [Metformin] + CC(=O)c1c(C)c2cnc(Nc3ccc(N4CCNCC4)cn3)nc2n(C2CCCC2)c1=O [Palbociclib] (partner 0.5 µM)
Summary of the method: as §1

Cell Line | relative viability (Apatinib + Olaparib; first compound 0.08 µM) | relative viability (Apatinib + Olaparib; first compound 0.253 µM) | relative viability (Apatinib + Olaparib; first compound 0.8 µM) | relative viability (Apatinib + Olaparib; first compound 2.53 µM) | relative viability (Apatinib + Olaparib; first compound 8 µM) | relative viability (Apatinib + Palbociclib; first compound 0.08 µM) | relative viability (Apatinib + Palbociclib; first compound 0.253 µM) | relative viability (Apatinib + Palbociclib; first compound 0.8 µM) | relative viability (Apatinib + Palbociclib; first compound 2.53 µM) | relative viability (Apatinib + Palbociclib; first compound 8 µM) | relative viability (Apatinib + Pictilisib; first compound 0.08 µM) | relative viability (Apatinib + Pictilisib; first compound 0.253 µM) | relative viability (Apatinib + Pictilisib; first compound 0.8 µM) | relative viability (Apatinib + Pictilisib; first compound 2.53 µM) | relative viability (Apatinib + Pictilisib; first compound 8 µM) | relative viability (Metformin + Palbociclib; first compound 10 µM) | relative viability (Metformin + Palbociclib; first compound 31.62 µM) | relative viability (Metformin + Palbociclib; first compound 100 µM) | relative viability (Metformin + Palbociclib; first compound 316.23 µM) | relative viability (Metformin + Palbociclib; first compound 1000 µM)
LK-2 | 0.903 | 0.581 | 0.64 | 0.63 | 0.515 | 0.762 | 0.481 | 0.758 | 0.484 | 0.356 | 0.532 | 0.511 | 0.484 | 0.326 | 0.428 | 0.86 | 0.837 | 0.706 | 0.718 | 0.877
LC-2-ad | 0.747 | 0.658 | 0.699 | 0.743 | 0.668 | 0.476 | 0.501 | 0.516 | 0.436 | 0.356 | 0.653 | 0.47 | 0.39 | 0.353 | 0.229 |  | 0.341 | 0.313 | 0.27 | 0.347
NCI-H2085 | 0.763 | 0.748 | 0.766 | 0.68 | 0.771 | 0.469 | 0.493 | 0.487 | 0.416 | 0.437 | 0.464 | 0.457 | 0.475 | 0.449 | 0.499 | 0.475 | 0.447 | 0.469 | 0.435 | 0.453
RERF-LC-KJ | 0.919 | 0.801 | 0.903 | 0.782 | 0.715 | 1.11 | 1.1 | 0.467 | 1.05 | 0.984 | 0.591 | 0.701 | 0.438 | 0.469 | 0.462 | 0.907 | 1.04 | 0.896 | 0.823 | 0.993
LOU-NH91 | 0.976 | 0.885 | 0.783 | 0.87 | 0.825 | 0.549 | 0.508 | 0.526 | 0.58 | 0.531 | 0.516 | 0.56 | 0.499 | 0.466 | 0.522 | 0.524 | 0.523 | 0.441 | 0.518 | 0.517
NCI-H2009 | 0.722 | 0.651 | 0.64 | 0.431 | 0.443 | 0.423 | 0.206 | 0.227 | 0.203 | 0.167 | 1.12 | 0.727 | 0.737 | 0.644 | 0.501 | 0.194 | 0.321 | 0.228 | 0.122 | 0.202
UMC-11 | 1.14 | 0.411 | 0.397 | 0.328 | 0.365 | 0.322 | 0.326 | 0.278 | 0.31 | 0.323 | 0.878 | 0.731 | 0.688 | 0.76 | 0.686 | 0.336 | 0.349 | 0.333 | 0.311 | 0.341
NCI-H2347 | 0.634 | 0.485 | 0.583 | 0.517 | 0.493 | 0.469 | 0.407 | 0.452 | 0.384 | 0.392 | 0.51 | 0.673 | 0.748 | 0.552 | 0.596 | 0.443 | 0.453 | 0.404 | 0.382 | 0.408
LU99A | 0.286 | 0.269 | 0.276 | 0.252 | 0.207 | 0.505 | 0.489 | 0.383 | 0.339 | 0.328 | 0.333 | 0.327 | 0.332 | 0.302 | 0.295 | 0.387 | 0.352 | 0.347 | 0.35 | 0.31
NCI-H3122 | 0.609 | 0.655 | 0.525 | 0.613 | 0.597 | 0.186 | 0.231 | 0.191 | 0.23 | 0.228 | 0.679 | 0.538 | 0.684 | 0.731 | 0.701 | 0.174 | 0.188 | 0.228 | 0.191 | 0.184
SW 1573 | 0.586 | 0.506 | 0.463 | 0.325 | 0.357 | 0.4 | 0.518 | 0.433 | 0.379 | 0.252 | 0.588 | 0.476 | 0.548 | 0.517 | 0.535 | 0.378 | 0.364 | 0.321 | 0.252 | 0.264
HARA | 0.761 | 0.582 | 0.848 |  | 0.706 | 0.291 | 0.262 | 0.303 | 0.271 | 0.272 | 0.447 | 0.491 | 0.494 | 0.435 | 0.307 | 0.323 | 0.297 | 0.442 | 0.279 | 0.394
NCI-H1793 | 0.959 | 0.897 | 0.813 | 0.798 | 0.555 | 0.35 | 0.284 | 0.349 | 0.264 | 0.27 | 0.277 | 0.23 | 0.391 | 0.256 | 0.342 | 0.297 | 0.39 | 0.387 | 0.353 | 0.361
NCI-H727 | 0.812 |  | 0.725 | 0.622 | 0.718 | 0.731 |  | 0.642 | 0.653 | 0.714 | 0.328 | 0.306 | 0.358 | 0.364 | 0.367 | 0.672 | 0.78 | 0.818 |  | 0.618
201T | 0.872 | 0.817 | 0.789 | 0.9 | 0.749 | 0.366 | 0.362 | 0.354 | 0.381 | 0.292 | 0.748 | 0.643 | 0.662 | 0.604 | 0.663 |  | 0.376 | 0.397 | 0.329 | 0.382
NCI-H838 | 0.853 | 0.831 | 0.762 | 0.69 | 0.696 | 0.229 | 0.261 | 0.206 | 0.215 | 0.217 | 0.533 | 0.462 | 0.41 | 0.469 | 0.451 | 0.295 | 0.278 | 0.261 | 0.271 | 0.298
NCI-H1734 | 0.675 | 0.622 | 0.61 | 0.56 | 0.565 | 0.375 | 0.364 | 0.334 | 0.318 | 0.312 | 0.478 | 0.491 | 0.466 | 0.469 | 0.416 | 0.284 | 0.329 | 0.292 | 0.359 | 0.371
